Literature values as cited in patent US9750732B2, “Urinary triaosylceramide (Gb3) as a marker of cardiac disease” (Baylor Research Institute, priority 2009, dated 2017).
Read-outs that look alike come from different tables or passages of the source.

Columns and labels:
APC: protein S [1] = details: purified proteins
APC: protein S [2] = details: exogenously added; in the presence but not absence of APC: protein S
[3] = in multicomponent vesicles containing phosphatidylserine and phosphatidylcholine

Row | Substance | inactivation of factor Va by APC: protein S (APC: protein S [1]; [3]) | clotting times of normal plasma (APC: protein S [2]) | inactivation of factor Va by APC: protein S (APC: protein S [1]; glycolipid alone)
1 | galactosylceramide | enhanced |  | 
2 | glycosylceramide [GlcCer] | enhanced | dose-dependently prolonged clotting times | enhanced
3 | globotriaosylceramide [Gb3Cer] | enhanced | dose-dependently prolonged clotting times | 
4 | lactosylceramide | enhanced |  | 
